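1) Cells in 96-well plates. 2) Compound, 48 h, 5 concentrations. 3) Linear interpolation between surrounding doses. 4) Unreached endpoint = highest concentration. TGI marks complete inhibition of growth.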
Tests used:
Experiment in all cases: NCI-60 cell line screen, 48 h
SK-MEL-5 melanoma = system: SK-MEL-5 melanoma
OVCAR-8 ovarian = system: OVCAR-8 ovarian
A549 NSCLC = system: A549 NSCLC
UACC-257 melanoma = system: UACC-257 melanoma
SF-268 CNS = system: SF-268 CNS
HOP-92 NSCLC = system: HOP-92 NSCLC
PC-3 prostate = system: PC-3 prostate
SNB-75 CNS = system: SNB-75 CNS
OVCAR-5 ovarian = system: OVCAR-5 ovarian
ACHN renal = system: ACHN renal

C=CCCCN(C(=O)c1ccccc1)c1ccc(C(=O)OC)o1
TGI (SK-MEL-5 melanoma): > 100 µM
TGI (OVCAR-8 ovarian): > 100 µM
TGI (A549 NSCLC): > 100 µM
TGI (UACC-257 melanoma): > 100 µM
TGI (SF-268 CNS): > 100 µM
TGI (HOP-92 NSCLC): > 100 µM
TGI (PC-3 prostate): > 100 µM
TGI (SNB-75 CNS): > 100 µM
TGI (OVCAR-5 ovarian): > 100 µM
TGI (ACHN renal): > 100 µM

CC(=O)OC1C2CCC3CC2C2(SCCS2)C31 (stereo not drawn)
TGI (SK-MEL-5 melanoma): > 100 µM
TGI (OVCAR-8 ovarian): > 100 µM
TGI (A549 NSCLC): > 100 µM
TGI (UACC-257 melanoma): > 100 µM
TGI (SF-268 CNS): > 100 µM
TGI (HOP-92 NSCLC): > 100 µM
TGI (PC-3 prostate): > 100 µM
TGI (OVCAR-5 ovarian): > 100 µM
TGI (ACHN renal): > 100 µM

Cc1ccc(N=Nc2c(O)ccc3ccccc23)c(C)c1
TGI (SK-MEL-5 melanoma): > 100 µM
TGI (OVCAR-8 ovarian): > 100 µM
TGI (A549 NSCLC): > 100 µM
TGI (UACC-257 melanoma): > 100 µM
TGI (SF-268 CNS): > 100 µM
TGI (HOP-92 NSCLC): > 100 µM
TGI (PC-3 prostate): > 100 µM
TGI (SNB-75 CNS): > 100 µM
TGI (OVCAR-5 ovarian): > 100 µM

CC(C)(C)OC(=O)NCC(c1c[nH]c2ccccc12)c1c[nH]c2ccccc12
TGI (SK-MEL-5 melanoma): 26.7 µM
TGI (OVCAR-8 ovarian): 34.4 µM
TGI (A549 NSCLC): 29.2 µM
TGI (UACC-257 melanoma): 28.6 µM
TGI (SF-268 CNS): 33.6 µM
TGI (HOP-92 NSCLC): 27.5 µM
TGI (PC-3 prostate): 29.5 µM
TGI (SNB-75 CNS): 28.1 µM
TGI (OVCAR-5 ovarian): 31.4 µM
TGI (ACHN renal): > 100 µM

C/C(CC(O)(C(F)(F)F)C(F)(F)F)=N\O
TGI (SK-MEL-5 melanoma): > 10 µM
TGI (OVCAR-8 ovarian): > 10 µM
TGI (A549 NSCLC): > 10 µM
TGI (UACC-257 melanoma): > 10 µM
TGI (SF-268 CNS): > 10 µM
TGI (HOP-92 NSCLC): > 10 µM
TGI (PC-3 prostate): > 10 µM
TGI (SNB-75 CNS): > 10 µM
TGI (OVCAR-5 ovarian): > 10 µM
TGI (ACHN renal): > 10 µM

COc1ccc(C2C3=C(COC3=O)Oc3cc4c(cc32)OCO4)cc1OC (stereo not drawn)
TGI (SK-MEL-5 melanoma): > 100 µM
TGI (OVCAR-8 ovarian): > 43.3 µM
TGI (A549 NSCLC): > 100 µM
TGI (UACC-257 melanoma): > 100 µM
TGI (SF-268 CNS): > 100 µM
TGI (HOP-92 NSCLC): > 100 µM
TGI (PC-3 prostate): > 31.3 µM
TGI (SNB-75 CNS): > 100 µM
TGI (OVCAR-5 ovarian): > 100 µM
TGI (ACHN renal): > 100 µM

CC(=O)N1CCOC12N=NC(C)(C)O2 (stereo not drawn)
TGI (SK-MEL-5 melanoma): > 100 µM
TGI (OVCAR-8 ovarian): > 100 µM
TGI (A549 NSCLC): > 100 µM
TGI (UACC-257 melanoma): > 100 µM
TGI (SF-268 CNS): > 100 µM
TGI (HOP-92 NSCLC): > 100 µM
TGI (PC-3 prostate): > 100 µM
TGI (SNB-75 CNS): > 100 µM
TGI (OVCAR-5 ovarian): > 100 µM
TGI (ACHN renal): > 100 µM

CC1(C)Cc2ccccc2C(C)(Cl)C(=O)N1 (stereo not drawn)
TGI (OVCAR-8 ovarian): > 10 µM
TGI (A549 NSCLC): > 10 µM
TGI (UACC-257 melanoma): > 10 µM
TGI (SF-268 CNS): > 10 µM
TGI (HOP-92 NSCLC): > 10 µM
TGI (PC-3 prostate): > 10 µM
TGI (OVCAR-5 ovarian): > 10 µM
TGI (ACHN renal): > 10 µM

C/C(=N\Nc1nc2cc(F)ccc2s1)c1ccccn1
TGI (SK-MEL-5 melanoma): 5.49 µM
TGI (OVCAR-8 ovarian): 1.79 µM
TGI (UACC-257 melanoma): > 24.4 µM
TGI (SF-268 CNS): 1.65 µM
TGI (HOP-92 NSCLC): 11.5 µM
TGI (PC-3 prostate): 10.4 µM
TGI (SNB-75 CNS): 4.68 µM
TGI (OVCAR-5 ovarian): 50.1 µM
TGI (ACHN renal): 1.35 µM

Cc1cc(NS(=O)(=O)c2ccc(Nc3c4ccccc4nc4c(C(=O)NC(CO)(CO)CO)cccc34)cc2)no1
TGI (SK-MEL-5 melanoma): > 100 µM
TGI (OVCAR-8 ovarian): > 100 µM
TGI (A549 NSCLC): > 100 µM
TGI (UACC-257 melanoma): > 100 µM
TGI (SF-268 CNS): 60.6 µM
TGI (HOP-92 NSCLC): > 100 µM
TGI (PC-3 prostate): > 100 µM
TGI (SNB-75 CNS): 55.1 µM
TGI (OVCAR-5 ovarian): > 100 µM
TGI (ACHN renal): > 100 µM

CCOC(=O)/C=C(/C(=O)OCC)n1cc(C)c(=O)n(Cc2cn(CCCCOC(C)=O)nn2)c1=O
TGI (SK-MEL-5 melanoma): > 100 µM
TGI (OVCAR-8 ovarian): 25.8 µM
TGI (A549 NSCLC): 56.1 µM
TGI (UACC-257 melanoma): 36.8 µM
TGI (SF-268 CNS): 38.7 µM
TGI (HOP-92 NSCLC): 3.11 µM
TGI (PC-3 prostate): 40.3 µM
TGI (SNB-75 CNS): 32.6 µM
TGI (OVCAR-5 ovarian): 41 µM
TGI (ACHN renal): 16.7 µM

COc1ccc(NCn2nc(CCCCCCCCc3nn(CNc4ccc(OC)cc4)c(=S)o3)oc2=S)cc1
TGI (SK-MEL-5 melanoma): > 100 µM
TGI (A549 NSCLC): > 100 µM
TGI (UACC-257 melanoma): > 100 µM
TGI (SF-268 CNS): > 100 µM
TGI (HOP-92 NSCLC): > 100 µM
TGI (PC-3 prostate): > 100 µM
TGI (SNB-75 CNS): > 100 µM
TGI (OVCAR-5 ovarian): > 100 µM
TGI (ACHN renal): > 100 µM

CC(C)(C)c1cc(C(C)(C)C)c(SC2OC(CO)C(O)C(O)C2O)c(O)c1O (stereo not drawn)
TGI (SK-MEL-5 melanoma): 18.6 µM
TGI (OVCAR-8 ovarian): 27.7 µM
TGI (A549 NSCLC): 21.3 µM
TGI (UACC-257 melanoma): > 72.6 µM
TGI (SF-268 CNS): 20.4 µM
TGI (HOP-92 NSCLC): > 42.6 µM
TGI (PC-3 prostate): 28.3 µM
TGI (SNB-75 CNS): 6.05 µM
TGI (OVCAR-5 ovarian): 32.1 µM
TGI (ACHN renal): 22.8 µM

CN1CCC(O)(OC(=O)C(c2ccccc2)C2(O)CCCC2)CC1 (stereo not drawn)
TGI (SK-MEL-5 melanoma): > 100 µM
TGI (OVCAR-8 ovarian): > 100 µM
TGI (A549 NSCLC): > 100 µM
TGI (UACC-257 melanoma): > 100 µM
TGI (SF-268 CNS): > 100 µM
TGI (HOP-92 NSCLC): > 100 µM
TGI (PC-3 prostate): > 100 µM
TGI (SNB-75 CNS): > 100 µM
TGI (OVCAR-5 ovarian): > 100 µM
TGI (ACHN renal): > 100 µM

COc1ccc(-c2csc3c2[N+]2(C)C=CC=C2C3N2CCCC2)cc1 (stereo not drawn)
TGI (SK-MEL-5 melanoma): 28.8 µM
TGI (OVCAR-8 ovarian): > 100 µM
TGI (A549 NSCLC): > 100 µM
TGI (UACC-257 melanoma): 93.5 µM
TGI (SF-268 CNS): > 100 µM
TGI (HOP-92 NSCLC): 75.9 µM
TGI (PC-3 prostate): > 100 µM
TGI (SNB-75 CNS): 36.8 µM
TGI (OVCAR-5 ovarian): > 100 µM
TGI (ACHN renal): > 100 µM

CCOC(=O)C1=C(N2CCCC2)C(=O)C(C(=O)OCC)C1 (stereo not drawn)
TGI (SK-MEL-5 melanoma): > 100 µM
TGI (OVCAR-8 ovarian): > 100 µM
TGI (A549 NSCLC): > 100 µM
TGI (UACC-257 melanoma): > 100 µM
TGI (SF-268 CNS): > 100 µM
TGI (HOP-92 NSCLC): > 100 µM
TGI (PC-3 prostate): > 100 µM
TGI (SNB-75 CNS): > 100 µM
TGI (OVCAR-5 ovarian): > 100 µM
TGI (ACHN renal): > 100 µM

CC12CC(c3ccccc3O1)C(C(=O)Nc1nccs1)C(=O)N2 (stereo not drawn)
TGI (SK-MEL-5 melanoma): > 100 µM
TGI (OVCAR-8 ovarian): > 100 µM
TGI (A549 NSCLC): > 100 µM
TGI (UACC-257 melanoma): > 100 µM
TGI (SF-268 CNS): > 100 µM
TGI (HOP-92 NSCLC): > 100 µM
TGI (PC-3 prostate): > 100 µM
TGI (SNB-75 CNS): > 100 µM
TGI (OVCAR-5 ovarian): > 100 µM
TGI (ACHN renal): > 100 µM

C[C@H](CCc1nc(C#N)c(N)o1)[C@H]1CC[C@H]2[C@@H]3CCC4C[C@@H](O)CC[C@]4(C)[C@H]3C[C@@H](O)[C@]12C (stereo partly drawn)
TGI (SK-MEL-5 melanoma): 29.5 µM
TGI (OVCAR-8 ovarian): 20.3 µM
TGI (A549 NSCLC): 23 µM
TGI (UACC-257 melanoma): 20.4 µM
TGI (SF-268 CNS): 27.8 µM
TGI (HOP-92 NSCLC): 28 µM
TGI (PC-3 prostate): 16.3 µM
TGI (SNB-75 CNS): 25 µM
TGI (OVCAR-5 ovarian): 35.1 µM
TGI (ACHN renal): 28.6 µM

Oc1ccc(Nc2nc(Cl)c3[nH]cnc3n2)cc1
TGI (SK-MEL-5 melanoma): > 100 µM
TGI (OVCAR-8 ovarian): > 100 µM
TGI (A549 NSCLC): > 100 µM
TGI (UACC-257 melanoma): > 100 µM
TGI (SF-268 CNS): > 100 µM
TGI (HOP-92 NSCLC): 38.2 µM
TGI (PC-3 prostate): > 100 µM
TGI (SNB-75 CNS): > 100 µM
TGI (OVCAR-5 ovarian): > 100 µM
TGI (ACHN renal): > 100 µM

O=C(NNC(=O)c1ccc(Cl)cc1NC(=O)C12CC3CC(CC(C3)C1)C2)c1ccc(Cl)cc1
TGI (SK-MEL-5 melanoma): 36.5 µM
TGI (OVCAR-8 ovarian): > 100 µM
TGI (A549 NSCLC): 42.8 µM
TGI (UACC-257 melanoma): 66.1 µM
TGI (SF-268 CNS): > 100 µM
TGI (HOP-92 NSCLC): 51.9 µM
TGI (PC-3 prostate): 82.4 µM
TGI (OVCAR-5 ovarian): 74.4 µM
TGI (ACHN renal): 51.6 µM

O=C1OC2(CCCCC2)C(Oc2ccc(Cl)cc2)=C1F
TGI (SK-MEL-5 melanoma): 33.3 µM
TGI (OVCAR-8 ovarian): > 100 µM
TGI (A549 NSCLC): > 100 µM
TGI (UACC-257 melanoma): 66.8 µM
TGI (SF-268 CNS): > 100 µM
TGI (HOP-92 NSCLC): 82.5 µM
TGI (PC-3 prostate): > 100 µM
TGI (SNB-75 CNS): > 100 µM
TGI (OVCAR-5 ovarian): > 100 µM
TGI (ACHN renal): > 100 µM
